Data as given in patent US20250319024A1, “TARGETED NANOPARTICLES AND THEIR USES RELATED TO INFECTIOUS DISEASE” (priority 2021, published 2025).

Assays:
T. gondii = details: 200 mg/kg per day for 10 days, previous studies; cited from earlier work
M. tuberculosis = details: literature; cited from earlier work
[1] = tested on: C. albicans, A. fumigatus, C. neoformans; test: Liposome binding, summary statements over all three fungal species

## CC[C@H]1OC(=O)[C@H](C)[C@@H](O[C@H]2C[C@@](C)(OC)[C@@H](O)[C@H](C)O2)[C@H](C)[C@@H](O[C@@H]2O[C@H](C)C[C@H](N(C)C)[C@H]2O)[C@](C)(O)C[C@@H](C)CN(C)[C@H](C)[C@@H](O)[C@]1(C)O [Free AZI, Azithromycin]
T. gondii
  mouse survival: 100%

## CO[C@H]1/C=C/O[C@@]2(C)Oc3c(C)c(O)c4c(O)c(c(/C=N/N5CCN(C)CC5)c(O)c4c3C2=O)NC(=O)/C(C)=C\C=C\[C@H](C)[C@H](O)[C@@H](C)[C@@H](O)[C@@H](C)[C@H](OC(C)=O)[C@@H]1C [free RIF, rifampin]
M. tuberculosis
  doses reported to control murine infections: ~10 mg/kg/day

B1: DCS12: recombinant human DC-SIGN isoform, CRD fused to neck repeats 1 and 2, SEQ ID NO: 12 (protein)
chain: MAHHHHHHYGTGSGKGKGSGSGQSRQDAIYQNLTQLKAAVGELSEKSKLQEIYQELTQLKAAVERLCHPCPWEWTFFQGNCYFMSNSQRNWHDSITACKEVGAQLVVIKSAEEQNFLQLQSSRSNRFTWMGLSDLNQEGTWQWVDGSPLLPSFKQYWNRGEPNNVGEEDCAEFSGNGWNDDKCNLAKFWICKKSAASCSRDEEQFLSPAPATPNPPPA
[1]
  bound more efficiently than untargeted AmB-LLs or BSA-AmB-LLs: more than an order of magnitude
